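Method: 48-hour compound exposure of cells in 96-well plates, five concentrations, linear interpolation of endpoints. At the GI50, growth is halved. TGI: total growth inhibition.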
Tests used:
Assay in all cases: NCI-60 cell line screen, 48 h
[1] = test system: 786-0 renal
[2] = test system: NCI/ADR-RES ovarian
[3] = test system: DU-145 prostate
[4] = test system: HS 578T breast

| SMILES | GI50 [1] | TGI [1] | GI50 [2] | TGI [2] | GI50 [3] | TGI [3] | GI50 [4] | TGI [4] |
| --- | --- | --- | --- | --- | --- | --- | --- | --- |
| COC(=O)[C@]12CC[C@@H](C)[C@H](C)[C@@H]1C1=CC[C@@H]3[C@@]4(C)C(C=O)=C[C@@](C)(COC(=O)/C=C/c5ccccc5)[C@@H]4[C@H](O)C[C@@]3(C)[C@]1(C)CC2 | 5.01 µM | 42.7 µM | 3.64 µM | 19.1 µM | 4.96 µM | 25.9 µM | 3.72 µM | 33.8 µM |
| CCC[CH2][Pb]([Cl])([CH2]CCC)[CH2]CCC | 0.0177 µM | 0.037 µM | – | – | 0.0978 µM | 0.22 µM | 0.0317 µM | 0.0913 µM |
| Nc1c(F)cc(-c2nc3cc(F)ccc3[se]2)cc1Br | 10.6 µM | 50.4 µM | 38.9 µM | > 100 µM | > 54.8 µM | > 100 µM | 44.7 µM | > 100 µM |
| CN(C)CCNC(=O)NC[C@H]1CC[C@@H]2[C@H](O1)c1cc(C(F)(F)F)ccc1N[C@H]2c1ccccc1 | 5.42 µM | 36.3 µM | 5.99 µM | > 100 µM | 0.253 µM | 0.792 µM | 0.173 µM | 18.1 µM |
| CN(C)c1ccc2nc(CC(O)(C(F)(F)F)C(F)(F)F)ccc2c1 | – | > 10 µM | – | > 10 µM | – | > 10 µM | – | > 10 µM |
| COc1ccc(OC)c(/C=C/c2nc(SCc3ccccc3)n(-c3ccc(Cl)cc3)n2)c1 | 7.66 µM | > 100 µM | 2.25 µM | > 100 µM | 9.9 µM | > 100 µM | 5.23 µM | > 100 µM |
| COc1ccc2c(c1OC(C)=O)C1=CC(=O)CCC13CCNC3C2 (stereo not given) | – | > 100 µM | – | > 100 µM | – | > 100 µM | – | > 100 µM |
| COc1ccc2c(c1)C(=O)c1c-2c(Nc2cccc(C(C)=O)c2)nc2ccccc12 | 3.78 µM | 14 µM | 8.66 µM | 28.3 µM | 11.7 µM | 32.2 µM | 3.19 µM | 15.5 µM |
| C#Cc1cccc(NC(=O)c2ccc(NC(=O)CCl)cc2)c1 | 14.6 µM | 29.8 µM | 19.6 µM | 67.1 µM | > 82.5 µM | > 82.5 µM | 27.9 µM | > 82.5 µM |
| Cc1ccc(S(=O)(=O)Nc2ccc(-c3cc(-c4cccc(F)c4)c(C#N)c(N)n3)cc2)cc1 | 1.71 µM | 3.12 µM | 2.92 µM | 10.8 µM | 2.33 µM | 5.45 µM | 2.28 µM | 7.48 µM |
| Cc1ccc(S(=O)(=O)N2CCc3ccc(O)c4c3C2Cc2ccc3c(c2-4)OCO3)cc1 (stereo not given) | 0.894 µM | 20.8 µM | 0.348 µM | 2.08 µM | 1.27 µM | 8.63 µM | 1.06 µM | > 50.6 µM |
| [CH3][Sn]([CH3])([CH3])[O][N+](=O)[O-] | 1.92 µM | 3.51 µM | 2.3 µM | 5.7 µM | > 10 µM | > 10 µM | 1.73 µM | > 10 µM |
| CC1=C([Se]CC(OC(=O)[C@@H](CO)NC(=O)OC(C)(C)C)C(=O)NCCCCCC(=O)OCc2ccccc2)C(=O)c2ccccc2C1=O (stereo not given in full) | 2.08 µM | 3.53 µM | – | – | 1.82 µM | 3.26 µM | 1.99 µM | 4.64 µM |
| C=C1C(=O)O[C@H]2[C@H]1CC/C(COC(=O)NCCCCCCCCNC(=O)OC/C1=C/CC[C@@]3(C)O[C@H]3[C@H]3OC(=O)C(=C)[C@@H]3CC1)=C\CC[C@@]1(C)O[C@@H]21 | 0.244 µM | 0.646 µM | 3.91 µM | 18.7 µM | 1.1 µM | 2.3 µM | 1.17 µM | 8.23 µM |
| COc1ccc(N(C)c2nc(Cl)nc3cnn(C)c23)cc1 | < 0.01 µM | > 100 µM | < 0.01 µM | > 100 µM | 0.0171 µM | > 100 µM | < 0.01 µM | > 100 µM |
| CN(C)CCOC(=O)Nc1nc2ccc(Sc3ccccc3)cc2[nH]1 | 3.8 µM | 15 µM | 2.44 µM | 9.65 µM | 4.09 µM | 18.8 µM | 4 µM | 28.8 µM |
| COc1cc2c(cc1C)NC(=O)/C2=C\c1c[nH]c2ccccc12 | 17.8 µM | 49.2 µM | 13 µM | 47.6 µM | 15.3 µM | 41.1 µM | 14.5 µM | 47.9 µM |
| CCn1ccc(NS(=O)(=O)c2ccc(N)cc2)nc1=O | > 100 µM | > 100 µM | > 100 µM | > 100 µM | > 100 µM | > 100 µM | 33.8 µM | > 100 µM |
| Cc1cc(Cl)cc(Cc2cc(Cl)cc(C)c2O)c1O | 2.48 µM | 7.76 µM | 2.07 µM | 5.95 µM | 3.47 µM | 17 µM | 2.55 µM | 7.75 µM |

| SMILES | GI50 [1] | TGI [1] | GI50 [2] | TGI [2] | GI50 [3] | TGI [3] | GI50 [4] | TGI [4] |
| --- | --- | --- | --- | --- | --- | --- | --- | --- |
| O=C(O[C@H]1CCN2C[C@H]3C[C@H](CN4C(=O)CCC[C@H]34)[C@@H]2C1)c1ccc(O)cc1 | – | > 100 µM | – | – | – | > 100 µM | – | > 100 µM |
| O=C(/C=C/OC(=O)c1cccc(Cl)c1)c1ccc(Cl)cc1 | > 91.7 µM | > 100 µM | 63.9 µM | > 100 µM | 44 µM | > 100 µM | 23.2 µM | > 70.4 µM |
| Fc1ccc(Nc2nc3ccccc3c3occc23)cc1 | 1.03 µM | 10.6 µM | 2.48 µM | 13 µM | 14.4 µM | 27.5 µM | 14.3 µM | 33.1 µM |
| C/C(=N/Nc1nc(C)cc(=O)[nH]1)C(=O)O | – | > 100 µM | – | > 100 µM | – | > 100 µM | – | > 100 µM |
| CN1CCN(Cc2cc(NC(=O)c3cccc(C#Cc4cccc5[nH]nc(N)c45)c3)cc(C(F)(F)F)c2)CC1 | 1.91 µM | 3.39 µM | 2.02 µM | 4.2 µM | 1.7 µM | 3.07 µM | – | – |
| O=C1NC(c2cccc(OCc3ccccc3)c2)Nc2ccccc21 (stereo not given) | – | 38.8 µM | – | 0.468 µM | – | – | – | 9.83 µM |
| COC1=CC(=O)c2nc(Cl)ccc2C1=O | 2.02 µM | 3.76 µM | 1.98 µM | 4.24 µM | 1.65 µM | 3.01 µM | 2.22 µM | 6.18 µM |
| CN1CCN(Cc2ccc(NC(=O)c3cncc(C#Cc4cnc(N)c5cnccc45)c3)cc2C(F)(F)F)CC1 | 0.314 µM | 7.73 µM | 6.02 µM | 15.9 µM | 0.214 µM | 6.21 µM | 0.122 µM | 0.7 µM |
| COCCn1cc(-c2csc(-c3c[nH]c4ccc(Br)cc34)n2)c2cccnc21 | 4.03 µM | > 100 µM | 2.86 µM | > 100 µM | – | – | 4.44 µM | 43 µM |
| FC(F)(F)c1cc(Nc2ccc3cc(OCCCN4CCOCC4)ccc3n2)ccc1Cl | 1.3 µM | 2.81 µM | 2.69 µM | 18 µM | 3.17 µM | 13.3 µM | 1.68 µM | 4.36 µM |
| COc1ccc(/C=C2\c3cc(OC)c(OC)c(OC)c3CC[C@@H]2O)cc1F | 0.492 µM | > 100 µM | 0.196 µM | 1.31 µM | 0.322 µM | > 100 µM | 0.299 µM | > 100 µM |
| Cn1c2ccccc2c2c(=O)n(CCCC(=O)OC(=NC3CCCCC3)NC3CCCCC3)c3c(-c4ccccc4)nnn3c21 | > 100 µM | > 100 µM | 94.9 µM | > 100 µM | > 100 µM | > 100 µM | > 100 µM | > 100 µM |
| CC1(C)N=C(N)N=C(N)N1c1cccc(Br)c1 | 0.093 µM | > 100 µM | > 63.5 µM | > 100 µM | 0.895 µM | > 100 µM | > 30.4 µM | > 100 µM |
| O=[N+]([O-])c1cc2c([N+](=O)[O-])cccc2o1 | – | 5.92 µM | – | 32.6 µM | – | 42 µM | – | 43.8 µM |
| CSc1ccc(C(=O)/C=C/c2ccccc2Cl)cc1 | 13.1 µM | 27.6 µM | 18.9 µM | 40.1 µM | 13.9 µM | 29 µM | 21.9 µM | 55.6 µM |
| C/C(=N/N=C(N)N)c1ccc(NC(=O)Nc2ccc(/C(C)=N/N=C(N)N)cc2)cc1 | 10.7 µM | 30.1 µM | 18 µM | > 100 µM | 11.2 µM | 40.1 µM | 26.5 µM | > 66.6 µM |
| Cc1nccc2c3ccc(OCc4cn(-c5ccc(Cl)cc5)nn4)cc3n(CC(C)C)c12 | 2.09 µM | 8.33 µM | 1.73 µM | 30.8 µM | 11.5 µM | > 33.3 µM | 2.62 µM | 30.1 µM |
| Nc1ncnc2c1ccn2[C@@H]1O[C@H]([C@H](O)c2ccc(Cl)c(F)c2)[C@@H](O)[C@H]1O | > 100 µM | > 100 µM | > 100 µM | > 100 µM | > 100 µM | > 100 µM | > 100 µM | > 100 µM |
| CCCCCCCC(=O)[O][Hg][CH2]C1COC([CH2][Hg][O]C(=O)CCCCCCC)CO1 (stereo not given) | 7.95 µM | 30.4 µM | 20.2 µM | 49.6 µM | 18.1 µM | 32.2 µM | 16.8 µM | 46.3 µM |

— PubChem BioAssay (NCI)
